# Tested on: COLO205 cells
# Test: Phospho-proteome profiling (CDK-motif antibody enrichment, LC-MS/MS)
# Format: cell-based, human
# Details: for CMPD 1/DMSO / MEAN MS SIGNAL CMPD 1 6 H: 6 H
# Description: We phospho-proteome profiled COLO205 cells to identify Mediator kinase substrates following chemical inhibition of Mediator kinase activity. Given the confirmed CDK8/19 selectivity of our compounds in binding and enzymatic activity assays, we employed a pool of antibodies selective for the proline-rich motifs phosphorylated by the CDK family to enrich potential CDK8/19 substrates for LC-MS/MS analysis.
# Adherent COLO205 cells were lysed with a urea buffer, lysates were reduced with DTT, alkylated with iodoacetimide and digested with trypsin-tosylphenylalanyl chloromethyl ketone. Digested peptides were immunoprecipitated using a pool of motif antibodies from Cell Signaling Technologies (US) comprising: phospho-MAPK substrate (PXS*P or S*PXR/K, #2325, RRID:AB_331820), phospho-CDKs substrate ((K/H)-S*P, #2324; RRID:AB_2244779), phospho-PLK binding motif (ST*P, #5243; RRID:AB_10891778) and phospho-tPE motif (T*PE, #3004; RRID:AB_10890649)-of phospho-MAPK (2325), phospho-CDK (2324), phospho-PLK (5243) and phospho-tPE (C3004) motif-recognizing antibodies immobilized onto protein A/G beads. Immunoprecipitated peptides were analyzed using an LTQ-Orbitrap-Velos. Sequences were assigned to the MS/MS spectra and evaluated using SEQUEST 3G and SORCERER 2 (Sage-N Research v4.0, Milpitas). Quantitative data was evaluated and clustered in Spotfire Decision Site (www.spotfire.tibco.com) and normalized using quartile normalization. Functional annotation and pathway analysis used DAVID (https://david.ncifcrf.gov/). […]
# Phospho-proteome analyses
# Adherent COLO205 cells were washed with PBS and cells lysed using urea lysis buffer (9 M Urea, 20 mM HEPES, pH 8.0, 1 mM beta-glycerophosphate, 1 mM sodium vanadate, 2.5 mM sodium pyrophosphate) and stored at -80 °C prior to analysis. The supernatants were reduced with 100 mM DTT for 30 minutes at 55 °C, followed by alkylation with 50 mM iodoacetimide for 15 minutes at ambient temperature in the dark.
# The samples were diluted in 20 mM HEPES, pH 8.0 and digested overnight with 10 ug/mL trypsin-tosylphenylalanyl chloromethyl ketone in 1 mM HCl. Digested peptides were acidified with 1% formic acid and then desalted over 360-mg SEP PAK C18 columns (Waters, UK). Peptides were eluted with 40% acetonitrile in 0.125% formic acid, dried under a vacuum and the lyophilised peptides used for immunoprecipitation.
# A pool of motif antibodies from Cell Signaling Technologies (US) comprising: phospho-MAPK substrate (PXS*P or S*PXR/K, #2325, RRID:AB_331820), phospho-CDKs substrate ((K/H)S*P, #2324; RRID:AB_2244779), phospho-PLK binding motif (ST*P, […]
# RRID:AB_10890649), were immobilised onto protein A/G beads overnight at 4 °C. The lyophilised peptides were resuspended in MOPS buffer (50 mM MOPS, pH 7.2, 10 mM KH2PO4, 50 mM NaCl) and centrifuged for 5 mins at 13,500 rpm in an Eppendorf benchtop microcentrifuge. The supernatants were incubated with the motif-bound beads for 2.5 hours at 4 °C . The beads were harvested by centrifugation at 4000 rpm in an Eppendorf benchtop microcentrifuge for 5 mins, washed with MOPS buffer twice and washed again 5 times with deionised water. The peptides were eluted off the beads using 0.125% formic acid, were desalted and dried under a vacuum. The lyophilised immunoprecipitated peptides were resuspended in 0.125% formic acid and separated on a capillary column packed with Magic C18 AQ reversed-phase resin.
# Peptides were eluted using a 72-minute linear gradient of acetonitrile in 0.125% formic acid delivered at 280nL/min. Samples were analysed using an LTQ-Orbitrap-Velos.
# MS Parameter Settings were: MS Run Time 96 min, MS1 Scan Range (300.0 – 1500.00), Top 20 MS/MS (Min Signal 500, Isolation Width 2.0, Normalized Coll.
# Charge State Rejection Enabled, Charge State 1+ Rejected, Dynamic Exclusion Enabled, Repeat Count 1, Repeat Duration 35.0, Exclusion List Size 500, Exclusion Duration 40.0, Exclusion Mass Width Relative to Mass, Exclusion Mass Width 10ppm). […]
# [1] = AHCTF1 peptide 1205/1240 - STlrSTplaSpspSpgrSpqr - 1225/1265
# [2] = AHNAK peptide 5778 - hrSnSfSderefSgpsTpTglefeggevsleggk - 5811
# [3] = AKNA peptide 429 - vpqefqTpeqatelvhqlqedyhr - 452
# [4] = ANLN peptide 381 - cqehSkeSparsTphrTpiiTpntk - 405
# [5] = ARHGAP19 peptide 443 - knpTpesvaigelk - 456
# [6] = ARID4B peptide 922/1008 - kaefpssgsnsvlnTpptTpespssvtvtegsr - 954/1040
# [7] = ATN1 peptide 158 - pyhppplfppSpqppdstpr - 177
# [8] = BAP1 peptide 513 - sanptrpsSpvtshisk - 529
# [9] = BCL11B peptide 367 - lrelagnSSTpppvSpgrgnpmhr - 390
# [10] = CC2D1A peptide 200 - gpasTpTySpaptqpapr - 217
# [11] = CDT1 peptide 72 - lsvdevsSpstpeapdipacpspgqk - 97
# [12] = CDT1 peptide 72 - lsvdevsspsTpeapdipacpSpgqk - 97
# [13] = CHAMP1 peptide 198 - lapvpspepqkpapvSpesvk - 219
# [14] = CHD4 peptide 1530 - mSqpgSpSpkTpTpSTpgdTqpnTpapvppaedgik - 1565
# [15] = CHD4 peptide 1531 - SqpgSpSpkTptpstpgdtqpntpapvppaedgik - 1565
# [16] = CHD4 peptide 1540 - TpTpSTpgdtqpnTpapvppaedgik - 1565
# [17] = CHD4 peptide 1540 - TptpStpgdtqpnTpapvppaedgikieenslk - 1572
# [18] = ECT2 peptide 403 - krpSaehSlSigSlldiSnTpeSsinYgdtpk - 434
# [19] = EEF1G peptide 379 - gqelafplSpdwqvdyesytwr - 100
# [20] = EGR1 peptide 6 - aemqlmsplqisdpfgsfphSptmdnypk -34
# [21] = EGR1 peptide 6 - aemqlmsplqisdpfgsfphspTmdnypk - 34
# [22] = EPC2 peptide 343 - aealitsqqpTpetlpvink - 362
smiles,measurement,setting,value
Cn1cc(-c2ccc(-c3cncc(Cl)c3N3CCC4(CCNC4=O)CC3)cc2)cn1 [CCT251545],CMPD 1/DMSO,[1],1.802
same,MEAN MS SIGNAL CMPD 1 6 H,[1],238204
same,CMPD 1/DMSO,[2],1.997
same,MEAN MS SIGNAL CMPD 1 6 H,[2],301575
same,CMPD 1/DMSO,[3],0.569
same,MEAN MS SIGNAL CMPD 1 6 H,[3],41850
same,CMPD 1/DMSO,[4],0.512
same,MEAN MS SIGNAL CMPD 1 6 H,[4],62532
same,CMPD 1/DMSO,[5],0.589
same,MEAN MS SIGNAL CMPD 1 6 H,[5],62950
same,CMPD 1/DMSO,[6],2.069
same,MEAN MS SIGNAL CMPD 1 6 H,[6],72000
same,CMPD 1/DMSO,[7],0.526
same,MEAN MS SIGNAL CMPD 1 6 H,[7],1231725
same,CMPD 1/DMSO,[8],1.826
same,MEAN MS SIGNAL CMPD 1 6 H,[8],26677
same,CMPD 1/DMSO,[9],1.888
same,MEAN MS SIGNAL CMPD 1 6 H,[9],33472
same,CMPD 1/DMSO,[10],0.625
same,MEAN MS SIGNAL CMPD 1 6 H,[10],70653
same,CMPD 1/DMSO,[11],0.368
same,MEAN MS SIGNAL CMPD 1 6 H,[11],55322
same,CMPD 1/DMSO,[12],0.429
same,MEAN MS SIGNAL CMPD 1 6 H,[12],15418
same,CMPD 1/DMSO,[13],2.031
same,MEAN MS SIGNAL CMPD 1 6 H,[13],849660
same,CMPD 1/DMSO,[14],0.456
same,MEAN MS SIGNAL CMPD 1 6 H,[14],51533
same,CMPD 1/DMSO,[15],0.310
same,MEAN MS SIGNAL CMPD 1 6 H,[15],35479
same,CMPD 1/DMSO,[16],0.193
same,MEAN MS SIGNAL CMPD 1 6 H,[16],31383
same,CMPD 1/DMSO,[17],0.000
same,MEAN MS SIGNAL CMPD 1 6 H,[17],0
same,abundance of phospho-peptide corresponding to phospho-STAT1 SER727,"COLO205, 350 nM, 6 h",decrease in abundance
same,phospho-peptides whose label-free intensities remained unchanged,"COLO205, 350 nM, 6 h",95%
same,"phosphorylation at MED13 THR565, MED14 SER1112 and MED26 SER314","COLO205, 350 nM, 6 h",reducing phosphorylation
same,phosphorylation of POLR2A CTD phospho-peptides,"COLO205, 350 nM, 6 h",no evidence of decreased phosphorylation
same,number of phospho-peptides consistently decreased by > 1.5-fold,"COLO205, 350 nM, 6 h, both independent biological repeats, 2,734 phospho-peptides identified",123
same,number of individual proteins represented by the decreased phospho-peptides,"COLO205, 350 nM, 6 h, > 1.5-fold decrease",95
same,CMPD 1/DMSO,[18],0.501
same,MEAN MS SIGNAL CMPD 1 6 H,[18],22710
same,CMPD 1/DMSO,[19],0.521
same,MEAN MS SIGNAL CMPD 1 6 H,[19],184020
same,CMPD 1/DMSO,[20],0.400
same,MEAN MS SIGNAL CMPD 1 6 H,[20],23807
same,CMPD 1/DMSO,[21],0.452
same,MEAN MS SIGNAL CMPD 1 6 H,[21],16379
same,CMPD 1/DMSO,[22],0.365
same,MEAN MS SIGNAL CMPD 1 6 H,[22],24823
same,CMPD 1/DMSO,EZH2 peptide 46 - grlpnnssrpstpTinvlesk - 376,1.970

# — paper PMC12281475, “Mediator Kinase Inhibitor Selectivity and Activity in Colorectal Cancer” (ACS Chemical Biology, 2025)
